Tests used:
[1] = molecular target: T1, AM1 receptor (CLR-RAMP2) in HUAECs (Homo sapiens, UniProt O60895+Q16602); test: mobilisation of Ca2+i in HUAECs; assay type: cell-based
T1 construct: host or cells: primary HUAECs
Protocol: All cell lines were plated at 20,000 cells/well on 96-well black clear-bottom plates (Costar, UK) 24 h before the experiment. […] Cells were then washed twice with calcium-free HBSS, then were left in 100 μl calcium-free HBSS for the duration of the assay. […] Data was normalised to the response seen with 10 μM Ionomycin.
(§1) All sample sizes were determined, and data analysed, in accordance with the guidelines described by Curtis M et al.[65]. All experiments were appropriately controlled using ‘system pathway’ agonists. If any of these pathway controls generated inappropriate responses, then the entire data set was removed from analysis. […] Data analysis for cAMP accumulation, Ca^2+i mobilisation, NO accumulation, pERK1/2 activation, and cell proliferation assays were performed in GraphPad Prism 8.4 (GraphPad Software, San Diego). Data were fitted to obtain concentration–response curves using either the three-parameter logistic equation using to obtain values of Emax and pEC50 or the operational model of agonism. Statistical differences were analysed using one-way ANOVA followed by Dunnett’s post-hoc (for comparisons amongst more than two groups) or unpaired Student’s t test with Welch’s correction (for comparison between two groups). To account for the day-to-day variation experienced from the cultured cells, we used the maximal level of cAMP accumulation from cells in response to 100 μM forskolin stimulation was used as a reference, 10 μM ionomycin for Ca^2+i assays, 10 μM phorbol 12-myristate 13-acetate (PMA) for pERK1/2 activation, 10 μM acetylcholine for NO production and 10 μM VEGF for cell proliferation. […] Where appropriate the operational model for receptor agonism[27] was used to obtain efficacy (τ) and equilibrium disassociation constant (KA) values. In both cases, this normalisation removes the variation due to differences in days but retains the variance for control values. The means of individual experiments were combined to generate the curves shown. Having obtained values for τ and KA these were then used to quantify signalling bias as the change in Log(τ/KA)[19],[28]. Error for this composite measure was propagated by applying Eq. 1.1 PooledSEM=(SEMA)^2+(SEMB)^2 Where, SEMA and SEMB are the standard error of measurement A and B.
(§2) (1 picture or pasted object on this page, not shown here)

HUAECs = test: cell proliferation (72 h) of HUAECs; assay type: cell-based, human; conditions: HUAEC
Protocol: Both endothelial cell lines and HCMs were seeded at a density of 2500 cells/well in a clear flat bottom 96-well plate (Corning, UK) and incubated at 37 °C in 5% CO2. After 24 h, cells were exposed to test compounds or vehicle, in complete endothelial cell growth media (HUVECs) or myocyte growth media (HCMs). Cells were incubated for a further 72 h at 37 °C in 5% CO2. After 72 h incubation, 5 μl of Cell Counting Kit–8 (CCK-8, Sigma, UK) was added to each well and cells were then incubated for another 2 h at 37 °C in 5% CO2 and in the dark[61]. The absorbance of each well was measured using a Mithras LB940 microplate reader with an excitation of 450 nm. The absorbance is directly proportional to the number of viable cells. Cell proliferation was calculated as a percentage of number of cells treated with vehicle alone.
as §1, §2

[2] = molecular target: T2, CGRP receptor (CLR-RAMP1) in human cardiomyocytes (HCMs) (Homo sapiens, UniProt O60894+Q16602); test: cAMP accumulation in HCMs; assay type: cell-based; conditions: HCM, 30 min, relative to 100 μM forskolin, mean ± SEM
T2 construct: primary human cardiomyocytes (HCMs) since these cells only expressed CLR and RAMP1; host or cells: primary human cardiomyocytes (HCMs)
Protocol: Data are analysed using a three-parameter non-linear regression curve or the operational model of receptor agonism. g, h Signalling bias plots were calculated as ∆Log(τ/KA) (g) or ∆∆Log(τ/KA) (h) for each agonist and for each signalling pathway. […] All data represent mean ± SEM for n repeats.
All primary cell lines were cultured as above. On the day of the experiment media was removed and cells washed with PBS, before being dissociated with Trypsin-EDTA 0.05% (Gibco, UK) and then resuspended in PBS/BSA (0.1%) (Sigma, UK). […] Plates were incubated for a further 60 min (room temperature) and then read on a plate reader (Mithras LB 940 microplate reader (Berthold technologies, Germany)). […]
All sample sizes were determined, and data analysed, in accordance with the guidelines described by Curtis M et al.[65]. […] Statistical differences were analysed using one-way ANOVA followed by Dunnett’s post-hoc (for comparisons amongst more than two groups) or unpaired Student’s t test with Welch’s correction (for comparison between two groups). […] Having obtained values for τ and KA these were then used to quantify signalling bias as the change in Log(τ/KA)[19],[28]. […]

[3] = molecular target: T3, CGRP receptor (CLR-RAMP1) in RAMP1-HUVECs (Homo sapiens, UniProt O60894+Q16602); test: cAMP accumulation in RAMP1-HUVECs; assay type: cell-based; conditions: RAMP1-HUVEC, 30 min, relative to 100 μM forskolin, mean ± SEM
T3 construct: biased agonism at the endogenous CLR in a physiological system; the open reading frame of RAMP1 into our HUVEC∆RAMP2 cell line; host or cells: HUVEC-∆RAMP2 (CRISPR-Cas9 RAMP2 knockout pool), lentiviral transduction, blasticidin selection
Protocol: Data are analysed using a three-parameter non-linear regression curve or the operational model of receptor agonism. g–h Signalling bias plots were calculated as ∆Log(τ/KA) (g) or ∆∆Log(τ/KA) (h) for each agonist and for each signalling pathway. […] All data represent mean ± SEM for n repeats.
All primary cell lines were cultured as above. On the day of the experiment media was removed and cells washed with PBS, before being dissociated with Trypsin-EDTA 0.05% (Gibco, UK) and then resuspended in PBS/BSA (0.1%) (Sigma, UK). Cells were immediately plated for use in cAMP assay as per the manufacturer’s instructions, reagents used were provided by the LANCE® cAMP detection assay kit (PerkinElmer, Boston, MA, USA), in 384 well optiplates (PerkinElmer (Boston, MA, USA)) at 2000 cells/well in 5 μl aliquots. […] Cells were incubated with compound for 30 min prior to adding detection buffer[28],[60]. Plates were incubated for a further 60 min (room temperature) and then read on a plate reader (Mithras LB 940 microplate reader (Berthold technologies, Germany)). All responses were normalised to 100μM forskolin (Tocris, UK). Antagonist studies were performed in the same way through co-stimulation of the relevant concentration. Alongside control-treated cell. […]
All sample sizes were determined, and data analysed, in accordance with the guidelines described by Curtis M et al.[65]. […]

[4] = Ca2+i, HUAEC, operational model, mean ± SEM
[5] = proliferation, operational model, mean ± SEM

T1 sequence (Q16602 23-461): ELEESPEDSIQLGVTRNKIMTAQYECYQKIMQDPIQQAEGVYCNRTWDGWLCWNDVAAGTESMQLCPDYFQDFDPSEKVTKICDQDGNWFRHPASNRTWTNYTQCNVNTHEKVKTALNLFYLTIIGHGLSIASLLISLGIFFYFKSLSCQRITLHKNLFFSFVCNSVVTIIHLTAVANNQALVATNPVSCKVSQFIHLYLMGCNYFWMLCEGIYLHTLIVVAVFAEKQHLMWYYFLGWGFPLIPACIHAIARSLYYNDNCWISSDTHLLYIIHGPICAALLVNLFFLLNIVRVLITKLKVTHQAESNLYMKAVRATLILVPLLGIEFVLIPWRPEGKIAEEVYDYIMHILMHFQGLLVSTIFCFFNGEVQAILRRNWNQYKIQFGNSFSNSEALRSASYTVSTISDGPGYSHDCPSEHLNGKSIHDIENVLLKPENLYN
T1 sequence (O60895 43-175): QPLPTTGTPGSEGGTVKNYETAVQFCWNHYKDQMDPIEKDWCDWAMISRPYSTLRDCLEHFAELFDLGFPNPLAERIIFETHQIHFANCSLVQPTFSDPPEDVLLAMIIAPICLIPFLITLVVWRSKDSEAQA
T3 sequence (Q16602 23-461): as the sequence (Q16602 23-461) above
T3 sequence (O60894 27-148): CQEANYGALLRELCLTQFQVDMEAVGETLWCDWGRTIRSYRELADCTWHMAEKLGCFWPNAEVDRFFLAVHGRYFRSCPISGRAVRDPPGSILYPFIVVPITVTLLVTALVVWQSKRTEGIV
T2 sequence (Q16602 23-461): as the sequence (Q16602 23-461) above
T2 sequence (O60894 27-148): as the sequence (O60894 27-148) above

In the case of `CSCC[C@H](NC(=O)[C@H](CC(C)C)NC(=O)[C@H](CCC(N)=O)NC(=O)[C@H](Cc1c[nH]c2ccccc12)NC(=O)[C@H](CC(C)C)NC(=O)[C@H](CCCNC(=N)N)NC(=O)[C@H](Cc1c[nH]cn1)NC(=O)[C@H](CO)NC(=O)[C@H](CC(C)C)NC(=O)[C@H](CC(N)=O)NC(=O)[C@H](CCC(N)=O)NC(=O)[C@@H](NC(=O)[C@H](CCC(N)=O)NC(=O)[C@@H]1CSSC[C@H](NC(=O)CNC(=O)[C@@H](NC(=O)[C@H](CCCNC(=N)N)NC(=O)[C@H](CC(C)C)NC(=O)[C@H](CC(C)C)NC(=O)[C@H](CCC(N)=O)NC(=O)[C@H](C)NC(=O)[C@H](CCC(N)=O)NC(=O)[C@@H](N)[C@@H](C)O)C(C)C)C(=O)N[C@@H](C(C)C)C(=O)N[C@@H](CC(C)C)C(=O)NCC(=O)N[C@@H]([C@@H](C)O)C(=O)N1)C(C)C)C(=O)NCC(=O)N1CCC[C@H]1C(=O)N[C@@H](C)C(=O)NCC(=O)N[C@@H](CCCNC(=N)N)C(=O)N[C@@H](CCC(N)=O)C(=O)N[C@@H](CC(=O)O)C(=O)N[C@@H](CO)C(=O)N[C@@H](C)C(=O)N1CCC[C@H]1C(=O)N[C@H](C(=O)N[C@@H](CC(=O)O)C(=O)N1CCC[C@H]1C(=O)N[C@@H](CO)C(=O)N[C@@H](CO)C(=O)N1CCC[C@H]1C(=O)N[C@@H](Cc1c[nH]cn1)C(=O)N[C@@H](CO)C(=O)N[C@@H](Cc1ccc(O)cc1)C(N)=O)C(C)C` [AM2, adrenomedullin 2], the Emax [1] is reported as 50.1 ± 3.22%, the “Transducer coefficient Log(τ/KA)” value ([1]; Ca2+i, HUAEC, calculated from Table S1) is reported as 7.60±0.14 and the logτ [1, 4] is reported as -0.01±0.05. The pKA [1, 4] was 7.61±0.13, the “Transducer coefficient Log(τ/KA)” value (HUAECs; Growth, calculated from Table S1) was 5.81±1.89 and the Emax (HUAECs; proliferation, 72 h, CCK-8, mean ± SEM) was 111.68±1.62%. For the same compound, the pEC50 (HUAECs; proliferation, 72 h, mean ± SEM of 3-6 data sets) was 6.87±0.48, the logτ (HUAECs; [5]) was -1.10±0.26 and the pKA (HUAECs; [5]) was 6.91±1.87.

`CC[C@H](C)[C@H](NC(=O)[C@H](CCC(N)=O)NC(=O)[C@H](Cc1c[nH]cn1)NC(=O)[C@H](C)NC(=O)[C@H](CC(C)C)NC(=O)[C@H](CCCCN)NC(=O)[C@H](CCC(N)=O)NC(=O)[C@@H](NC(=O)[C@@H](NC(=O)[C@@H]1CSSC[C@H](NC(=O)CNC(=O)[C@H](Cc2ccccc2)NC(=O)[C@H](CO)NC(=O)[C@H](CCCNC(=N)N)NC(=O)[C@H](CC(C)C)NC(=O)CNC(=O)[C@H](CCC(N)=O)NC(=O)[C@H](Cc2ccccc2)NC(=O)[C@H](CC(N)=O)NC(=O)[C@H](CC(N)=O)NC(=O)[C@H](CCSC)NC(=O)[C@H](CO)NC(=O)[C@H](CCC(N)=O)NC(=O)[C@H](CCCNC(=N)N)NC(=O)[C@@H](N)Cc2ccc(O)cc2)C(=O)N[C@@H](CCCNC(=N)N)C(=O)N[C@@H](Cc2ccccc2)C(=O)NCC(=O)N[C@@H]([C@@H](C)O)C(=O)N1)[C@@H](C)O)C(C)C)C(=O)N[C@@H](Cc1ccc(O)cc1)C(=O)N[C@@H](CCC(N)=O)C(=O)N[C@@H](Cc1ccccc1)C(=O)N[C@H](C(=O)N[C@@H](CC(=O)O)C(=O)N[C@@H](CCCCN)C(=O)N[C@@H](CC(=O)O)C(=O)N[C@@H](CCCCN)C(=O)N[C@@H](CC(=O)O)C(=O)N[C@@H](CC(N)=O)C(=O)N[C@H](C(=O)N[C@@H](C)C(=O)N1CCC[C@H]1C(=O)N[C@@H](CCCNC(=N)N)C(=O)N[C@@H](CO)C(=O)N[C@@H](CCCCN)C(=O)N[C@H](C(=O)N[C@@H](CO)C(=O)N1CCC[C@H]1C(=O)N[C@@H](CCC(N)=O)C(=O)NCC(=O)N[C@@H](Cc1ccc(O)cc1)C(N)=O)[C@@H](C)CC)C(C)C)[C@@H](C)O` [AM, adrenomedullin] gave an Emax [2] of 63 ± 3.14% and an Emax [3] of 39 ± 2.08%.
